Laboratory results as given in ChEMBL document CHEMBL6083252, “Synthesis and evaluation of novel tetrahydroisoquinoline-benzo[h]chromen-4-one conjugates as dual ABCB1/CYP1B1 inhibitors for overcoming MDR in cancer” (Bioorg Med Chem, 2024).
The source made the active and inactive calls. The rule behind the calls is not given here.

Experiments:
SW620/AD300 [1] = test: Reversal of multidrug resistance in human SW620/AD300 cells assessed as decrease in doxorubicin IC50 at 5 uM in presence of doxorubicin (reference value: 11.10 +/- 1.61 uM); assay type: functional, cell-based
SW620/AD300 [2] = test: Reversal of multidrug resistance in human SW620/AD300 cells assessed as reversal fold by measuring ratio of doxorubicin IC50 to doxorubicin IC50 in presence of test compound at 5 uM; assay type: functional
SW-620 = test: Cytotoxicity against human SW620 cells assessed as inhibition of cell growth at 5 uM incubated for 48 hrs by CCK8 assay; assay type: functional; set-up: scale not given: the % may be the effect or the level left
SW620/AD300 [3] = test: Cytotoxicity against human SW620/AD300 cells assessed as inhibition of cell growth at 5 uM incubated for 48 hrs by CCK8 assay; assay type: functional; set-up: scale not given: the % may be the effect or the level left
[4] = Reversal of docetaxel resistance in human DU-145 cells transfected with CYP1B1 assessed as decrease in docetaxel IC50 at 5 uM (reference value: 23.5 +/- 3.04 nM); assay type: functional, cell-based
DU-145 = test: Cytotoxicity against human DU-145 cells assessed as inhibition of cell growth at 5 uM incubated for 48 hrs by CCK8 assay; assay type: functional, cell-based
[5] = tested on: MKN45-DDP-R (Cisplatin-resistant MKN45 cells); test: Reversal of cisplatin resistance in human MKN45-DDP-R cells expressing CYP1B1 at 5 uM in presence of cisplatin; assay type: functional, cell-based
SW620/AD300 [6] = test: Cytotoxicity against human SW620/AD300 cells assessed as inhibition of cell growth incubated for 48 hrs by CCK8 assay; assay type: functional, cell-based; conditions: SW620/AD300, 48 h
[7] = Cytotoxicity against human MKN45-DDP-R cells assessed as inhibition of cell growth incubated for 48 hrs by CCK8 assay; assay type: functional, cell-based; conditions: MKN45-DDP-R (Cisplatin-resistant MKN45 cells)
SW620/AD300 [8] = test: Effect on P-gp protein expression in human SW620/AD300 cells at 5 uM incubated for 24 hrs by immunofluorescence assay; assay type: functional, cell-based
SW620/AD300 [9] = test: Effect on P-gp protein expression in human SW620/AD300 cells at 5 to 30 uM by Western blotting assay; assay type: functional, cell-based; conditions: dose 5-30 µM
[10] = tested on: MKN45-DDP-R (Cisplatin-resistant MKN45 cells); test: Effect on lipid peroxidation level in human MKN45-DDP-R cells at 10 uM incubated for 24 hrs by BODIPY 581/591 C11 probe based flow cytometry assay; assay type: functional, cell-based
[11] = tested on: MKN45-DDP-R (Cisplatin-resistant MKN45 cells); test: Upregulation of PUMA expression level in human MKN45-DDP-R cells at 6 to 12 uM incubated for 48 hrs by Western blotting assay; assay type: functional, cell-based; conditions: dose 6-12 µM
[12] = Induction of apoptosis in human MKN45-DDP-R cells assessed as viable cells at 3 uM incubated for 48 hrs by Annexin V-FITC/PI staining based flow cytometry analysis (reference value: 94.7%); assay type: functional; conditions: MKN45-DDP-R (Cisplatin-resistant MKN45 cells), read-out: Activity
[13] = Induction of apoptosis in human MKN45-DDP-R cells assessed as early apoptotic cells at 3 uM incubated for 48 hrs by Annexin V-FITC/PI staining based flow cytometry analysis (reference value: 3.70%); assay type: functional, MKN45-DDP-R (Cisplatin-resistant MKN45 cells)
[14] = Induction of apoptosis in human MKN45-DDP-R cells assessed as late apoptotic cells at 3 uM incubated for 48 hrs by Annexin V-FITC/PI staining based flow cytometry analysis (reference value: 0.89%); assay type: functional, MKN45-DDP-R (Cisplatin-resistant MKN45 cells)
[15] = Induction of apoptosis in human MKN45-DDP-R cells assessed as necrotic cells at 3 uM incubated for 48 hrs by Annexin V-FITC/PI staining based flow cytometry analysis (reference value: 0.76%); assay type: functional, MKN45-DDP-R (Cisplatin-resistant MKN45 cells)
[16] = Induction of apoptosis in human MKN45-DDP-R cells assessed as viable cells at 6 uM incubated for 48 hrs by Annexin V-FITC/PI staining based flow cytometry analysis (reference value: 94.7%); assay type: functional; conditions: MKN45-DDP-R (Cisplatin-resistant MKN45 cells), read-out: Activity
[17] = Induction of apoptosis in human MKN45-DDP-R cells assessed as early apoptotic cells at 6 uM incubated for 48 hrs by Annexin V-FITC/PI staining based flow cytometry analysis (reference value: 3.70%); assay type: functional, MKN45-DDP-R (Cisplatin-resistant MKN45 cells)
[18] = Induction of apoptosis in human MKN45-DDP-R cells assessed as late apoptotic cells at 6 uM incubated for 48 hrs by Annexin V-FITC/PI staining based flow cytometry analysis (reference value: 0.89%); assay type: functional, MKN45-DDP-R (Cisplatin-resistant MKN45 cells)
[19] = Induction of apoptosis in human MKN45-DDP-R cells assessed as necrotic cells at 6 uM incubated for 48 hrs by Annexin V-FITC/PI staining based flow cytometry analysis (reference value: 0.76%); assay type: functional, MKN45-DDP-R (Cisplatin-resistant MKN45 cells)
[20] = tested on: MKN45-DDP-R (Cisplatin-resistant MKN45 cells); test: Inhibition of colony formation in human MKN45-DDP-R cells assessed as decrease in colony number incubated for 48 hrs followed by media replacement and cultured for 12 days by crystal violet staining based assay; assay type: functional, cell-based; conditions: dose 1-3 µM
[21] = tested on: MKN45-DDP-R (Cisplatin-resistant MKN45 cells); test: Inhibition of colony formation in human MKN45-DDP-R cells assessed as decrease in colony size incubated for 48 hrs followed by media replacement and cultured for 12 days by crystal violet staining based assay; assay type: functional, cell-based; conditions: dose 1-3 µM
[22] = tested on: MKN45-DDP-R (Cisplatin-resistant MKN45 cells); test: Inhibition of cell migration in human MKN45-DDP-R cells at over 1 uM incubated for 24 hrs by scratch wound healing based inverted microscopic analysis; assay type: functional
SW620/AD300 [23] = test: Downregulation of P-gp expression in human SW620/AD300 cells at 10 uM incubated for 24 hrs by immunofluorescence assay; assay type: functional, cell-based
SW620/AD300 [24] = test: Downregulation of P-gp expression in human SW620/AD300 cells upto 30 uM incubated for 24 hrs by Western blotting assay; assay type: functional, cell-based
Cytochrome P450 1B1 = biological target: T1, Cytochrome P450 1B1 (Homo sapiens, UniProt Q16678); test: Inhibition of recombinant human CYP1B1 at 0.5 uM using 7-Ethoxyresorufin as substrate incubated for 35 mins in presence of NADPH by microplate reader assay; assay type: ADME; conditions: recombinant enzyme
T1 sequence (Q16678 whole entry): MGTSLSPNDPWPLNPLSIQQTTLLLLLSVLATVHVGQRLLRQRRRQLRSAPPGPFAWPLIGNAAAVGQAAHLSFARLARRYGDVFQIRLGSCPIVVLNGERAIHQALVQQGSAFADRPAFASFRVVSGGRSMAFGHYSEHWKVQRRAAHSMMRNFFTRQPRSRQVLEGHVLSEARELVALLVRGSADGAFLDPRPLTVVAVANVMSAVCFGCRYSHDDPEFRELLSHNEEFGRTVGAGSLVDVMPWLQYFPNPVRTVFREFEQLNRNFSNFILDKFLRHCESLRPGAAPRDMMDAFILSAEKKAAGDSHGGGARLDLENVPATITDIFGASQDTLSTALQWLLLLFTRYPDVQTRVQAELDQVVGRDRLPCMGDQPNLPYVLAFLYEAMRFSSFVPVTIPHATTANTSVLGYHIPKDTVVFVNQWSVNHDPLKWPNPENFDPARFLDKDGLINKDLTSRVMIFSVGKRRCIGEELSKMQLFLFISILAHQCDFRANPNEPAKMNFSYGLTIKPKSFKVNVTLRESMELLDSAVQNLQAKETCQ

[25] = Reversal of drug resistance in human DOX-SW620/AD300-1B1 cells assessed as decrease in doxorubicin IC50 at 5 uM after 48 hrs in presence of doxorubicin by CCK8 assay (reference value: 64.5 +/- 30 uM); assay type: functional, cell-based; conditions: DOX-SW620/AD300-1B1, 48 h
[26] = Cytotoxicity against human DOX-SW620/AD300-1B1 cells assessed as inhibition of cell growth incubated for 48 hrs by CCK8 assay; assay type: functional, cell-based; conditions: DOX-SW620/AD300-1B1, 48 h
[27] = biological target: ATP-dependent translocase ABCB1 (Homo sapiens, UniProt P08183); test: Inhibition of P-gp in human SW620/AD300 cells assessed as increase in intracellular Rh123 accumulation at 5 uM incubated for 4 hrs by flow cytometry analysis; assay type: cell-based; conditions: sw620/ad300, 4 h
Chain of ATP-dependent translocase ABCB1 (P08183 whole entry): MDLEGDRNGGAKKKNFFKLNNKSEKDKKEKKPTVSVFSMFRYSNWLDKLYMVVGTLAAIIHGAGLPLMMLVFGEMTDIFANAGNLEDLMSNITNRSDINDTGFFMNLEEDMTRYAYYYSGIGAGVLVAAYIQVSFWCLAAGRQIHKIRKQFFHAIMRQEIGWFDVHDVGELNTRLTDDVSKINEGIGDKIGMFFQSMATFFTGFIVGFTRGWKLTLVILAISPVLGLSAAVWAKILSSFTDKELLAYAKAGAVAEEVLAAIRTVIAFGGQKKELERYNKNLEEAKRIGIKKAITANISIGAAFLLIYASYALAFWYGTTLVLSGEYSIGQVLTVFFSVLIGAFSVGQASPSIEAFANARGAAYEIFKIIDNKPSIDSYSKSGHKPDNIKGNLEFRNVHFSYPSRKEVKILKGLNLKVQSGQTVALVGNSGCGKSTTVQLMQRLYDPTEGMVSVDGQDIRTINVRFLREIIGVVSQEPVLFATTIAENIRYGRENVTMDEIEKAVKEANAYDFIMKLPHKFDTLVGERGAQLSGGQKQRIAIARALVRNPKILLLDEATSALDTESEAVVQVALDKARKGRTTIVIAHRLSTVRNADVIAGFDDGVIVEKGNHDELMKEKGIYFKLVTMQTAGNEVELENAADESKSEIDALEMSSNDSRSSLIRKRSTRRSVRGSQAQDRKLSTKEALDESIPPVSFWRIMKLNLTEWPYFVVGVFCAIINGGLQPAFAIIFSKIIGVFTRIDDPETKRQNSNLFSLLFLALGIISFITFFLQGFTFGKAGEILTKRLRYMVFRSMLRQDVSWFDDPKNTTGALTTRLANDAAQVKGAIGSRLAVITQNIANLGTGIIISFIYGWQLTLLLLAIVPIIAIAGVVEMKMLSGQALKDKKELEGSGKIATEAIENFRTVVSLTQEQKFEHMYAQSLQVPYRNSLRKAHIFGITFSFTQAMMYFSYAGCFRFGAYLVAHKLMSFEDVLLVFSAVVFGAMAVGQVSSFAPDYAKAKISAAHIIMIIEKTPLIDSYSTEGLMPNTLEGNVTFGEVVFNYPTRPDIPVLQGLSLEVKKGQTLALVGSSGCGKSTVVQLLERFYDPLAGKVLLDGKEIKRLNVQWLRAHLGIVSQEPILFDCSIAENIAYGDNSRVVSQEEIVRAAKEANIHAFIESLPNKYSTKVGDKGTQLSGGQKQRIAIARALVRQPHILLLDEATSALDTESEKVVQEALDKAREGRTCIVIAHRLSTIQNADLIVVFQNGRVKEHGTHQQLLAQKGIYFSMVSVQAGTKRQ

Compound | IC50 (SW620/AD300 [1]) [nM] | Ratio IC50 (SW620/AD300 [2]) | Activity (SW-620) [%] | Activity (SW620/AD300 [3]) [%] | IC50 [4] [nM] | Activity (DU-145) | other results
COc1cc2c(cc1OC)CN(C(=O)Cn1cc(-c3ccc(-c4cc(=O)c5ccc6ccccc6c5o4)cc3)nn1)CC2 | 2290 | 4.8 | 22.19 | 26.85 | 3.41 | Active; Lower Cytotoxicity Than Anf And Wk-X-37 | Activity [5]: Active
COc1cc2c(cc1OC)CN(CCc1ccc(NC(=O)c3cc(=O)c4ccc5ccccc5c4o3)cc1)CC2 | 400 | 27.8 | 13.57 | 20.08 | – | – | –
COc1cc2c(cc1OC)CN(CCNC(=O)c1cc(=O)c3ccc4ccccc4c3o1)CC2 | 5250 | 2.1 | 51.29 | 55.04 | – | – | IC50 (SW620/AD300 [6]): 9100 nM; IC50 [7]: 6580 nM; Activity (SW620/AD300 [8]): inactive; Activity (SW620/AD300 [9]): inactive; Activity [10]: inactive; Activity [11]: Active; viability at 3 µM [12]: 81.1%; Activity [13]: 15%; Activity [14]: 3.37%; Activity [15]: 0.58%; viability at 6 µM [16]: 58%; Activity [17]: 34.9%; Activity [18]: 6.41%; Activity [19]: 0.73%; inhibition [20]: Dose-dependent-effect; inhibition [21]: Dose-dependent-effect; inhibition [22]: Active
COc1cc2c(cc1OC)CN(CCN1CCN(C(=O)c3cc(=O)c4ccc5ccccc5c4o3)CC1)CC2 | 660 | 16.8 | 11.06 | 15.35 | – | – | –
COc1cc2c(cc1OC)CN(CCc1ccc(NC(=O)c3ccccc3NC(=O)c3cc(=O)c4ccc5ccccc5c4o3)cc1)CC2 | 320 | 34.7 | 13.34 | 7.13 | 9.6 | Active; Lower Cytotoxicity Than Anf And Wk-X-34 | Activity (SW620/AD300 [23]): inactive; Activity (SW620/AD300 [24]): inactive
COc1cc2c(cc1OC)CN(C(=O)c1cc(=O)c3ccc4ccccc4c3o1)CC2 | 6500 | 1.7 | 8.82 | 15.57 | – | – | –
COc1cc2c(cc1OC)CN(C(=O)c1cc(=O)c3cc(OC)c4ccccc4c3o1)CC2 | 7480 | 1.4 | 4.62 | 3.49 | 11.4 | Active; Lower Cytotoxicity Than Anf And Wk-X-35 | –
O=c1cc(-c2ccccc2)oc2c1ccc1ccccc12 [ALPHA-NAPHTHOFLAVONE] | – | – | – | – | 8.2 | Active; Lower Cytotoxicity Than Anf And Wk-X-39 | inhibition (INH) (Cytochrome P450 1B1): Active; IC50 [25]: 2400 nM
COc1cccc2c1C(=O)c1c(O)c3c(c(O)c1C2=O)C[C@@](O)(C(=O)CO)C[C@@H]3O[C@H]1C[C@H](N)[C@H](O)[C@H](C)O1 [DOXORUBICIN] | – | – | 0.29 | – | – | – | IC50 (SW620/AD300 [6]): 11100 nM; IC50 [26]: 64500 nM
COc1ccc(C(=O)Nc2ccccc2C(=O)Nc2ccc(CCN3CCc4cc(OC)c(OC)cc4C3)cc2)cc1OC | 280 | 39.6 | 8.91 | 6.53 | 8.7 | Active; Lower Cytotoxicity Than Anf And Wk-X-38 | inhibition (INH) [27]: Active; inhibition (INH) (Cytochrome P450 1B1): Active; IC50 [25]: 40000 nM
COc1cc2c(cc1OC)CN(CCc1ccc(NC(=O)c3cc(=O)c4cc(OC)c5ccccc5c4o3)cc1)CC2 | 250 | 44.4 | 32.77 | 17.28 | 5.69 | Active; Lower Cytotoxicity Than Anf And Wk-X-36 | Activity (SW620/AD300 [23]): inactive; Activity (SW620/AD300 [24]): inactive; Activity [5]: Active; IC50 [25]: 4700 nM
COc1cc2c(cc1OC)CN(C(=O)C1CCN(C(=O)c3cc(=O)c4cc(OC)c5ccccc5c4o3)CC1)CC2 | 2200 | 5 | 13.03 | 4.05 | – | – | –
COc1cc2c(cc1OC)CN(C(=O)C1CCN(C(=O)c3cc(=O)c4ccc5ccccc5c4o3)CC1)CC2 | 840 | 13.2 | 26.93 | 14.46 | – | – | –
COc1cc2c(cc1OC)CN(CCNC(=O)c1cc(=O)c3cc(OC)c4ccccc4c3o1)CC2 | 470 | 23.6 | 28.94 | 34.64 | – | – | –
